ChEMBL document CHEMBL6074662, “Antibacterial, Antibiofilm, and Anti-inflammatory Effects of a Novel Thrombin-Derived Peptide in Sepsis Models: Insights into Underlying Mechanisms” (J Med Chem, 2024)
Active and inactive are the calls of the source. The rule behind the calls is not given here.

Assays:
[1] = system: Staphylococcus epidermidis; test: Antibacterial activity against Staphylococcus epidermidis KCTC 1917 incubated for 24 hrs by CLSI based broth microdilution method; type: functional
Escherichia coli [2] = test: Antibacterial activity against Escherichia coli KCTC 1682 incubated for 24 hrs in presence of human serum by CLSI based broth microdilution method; type: functional
Staphylococcus aureus [3] = test: Antibacterial activity against methicillin-resistant Staphylococcus aureus CCARM 3095 incubated for 24 hrs by CLSI based broth microdilution method; type: functional
Escherichia coli [4] = test: Antibacterial activity against Escherichia coli KCTC 1682 incubated for 24 hrs by CLSI based broth microdilution method; type: functional
Escherichia coli [5] = test: Antibacterial activity against Escherichia coli KCTC 1682 incubated for 24 hrs in presence of CaCl2 by CLSI based broth microdilution method; type: functional
Escherichia coli [6] = test: Antibacterial activity against Escherichia coli KCTC 1682 assessed as zone of clearance incubated for 4 hrs in presence of alpha-chymotrypsin by radical diffusion assay; type: functional, organism-based
Escherichia coli [7] = test: Antibacterial activity against Escherichia coli KCTC 1682 assessed as zone of clearance incubated for 4 hrs in presence of proteinase K by radical diffusion assay; type: functional, organism-based
[8] = Effect on secondary structure of drug in SDS assessed as fold increase in formation of alpha-helical conformation at 150 uM by CD analysis relative to HVF18; type: physicochemical
[9] = Effect on secondary structure of drug in LPS assessed as fold increase in formation of alpha-helical conformation at 150 uM by CD analysis relative to HVF18; type: physicochemical
Escherichia coli [10] = test: Induction of resistance development in Escherichia coli KCTC 1682 at 0.5 times MIC measured after 30 passages; type: functional, organism-based
Staphylococcus aureus [11] = test: Synergistic antibacterial activity against methicillin-resistant Staphylococcus aureus CCARM 3089 assessed as fractional inhibitory concentration index incubated for 24 hrs in presence of Oxacillin by broth microdilution method; type: functional
Pseudomonas aeruginosa [12] = test: Synergistic antibacterial activity against multi-drug resistant Pseudomonas aeruginosa CCARM 2095 assessed as MIC of Chloramphenicol incubated for 24 hrs by broth microdilution method; type: functional
Pseudomonas aeruginosa [13] = test: Synergistic antibacterial activity against multi-drug resistant Pseudomonas aeruginosa CCARM 2095 assessed as MIC of Ciprofloxacin incubated for 24 hrs by broth microdilution method; type: functional
Pseudomonas aeruginosa [14] = test: Synergistic antibacterial activity against multi-drug resistant Pseudomonas aeruginosa CCARM 2095 incubated for 24 hrs in presence of Oxacillin by broth microdilution method; type: functional
[15] = Cytotoxicity against mouse RAW264.7 cells assessed as cell survival at 10 to 20 uM incubated for 16 hrs by WST-8 assay relative to control; type: toxicity, cell-based; conditions: dose 10-20 µM, read-out: Survival
Lipopolysaccharide (LPS) [16] = test: Displacement of BODIPY-TR-cadaverine from Escherichia coli 0111:B4 LPS incubated for 30 mins by fluorescence based assay; conditions: dose <= 32.0 µM
Lipopolysaccharide (LPS) [17] = test: Displacement of BODIPY-TR-cadaverine from cell-free LPS (unknown origin) at 16 uM incubated for 30 mins by fluorescence based assay relative to control
Lipopolysaccharide (LPS) [18] = test: Displacement of BODIPY-TR-cadaverine from Escherichia coli 0111:B4 LPS at 16 uM incubated for 30 mins by fluorescence based assay relative to control
[19] = biological target: Toll-like receptor 4 (Homo sapiens) (UniProt O00206); test: Inhibition of LPS-induced human TLR4 activation expressed in HEK-Blue hTLR4 cells assessed as decrease in SEAP activity at 25 uM pretreated for 1 hr followed by LPS treatment for 16 hrs by absorbance based assay relative to control; type: cell-based; conditions: time 17.0 hrs
Chain of Toll-like receptor 4 (Homo sapiens) (O00206 whole entry): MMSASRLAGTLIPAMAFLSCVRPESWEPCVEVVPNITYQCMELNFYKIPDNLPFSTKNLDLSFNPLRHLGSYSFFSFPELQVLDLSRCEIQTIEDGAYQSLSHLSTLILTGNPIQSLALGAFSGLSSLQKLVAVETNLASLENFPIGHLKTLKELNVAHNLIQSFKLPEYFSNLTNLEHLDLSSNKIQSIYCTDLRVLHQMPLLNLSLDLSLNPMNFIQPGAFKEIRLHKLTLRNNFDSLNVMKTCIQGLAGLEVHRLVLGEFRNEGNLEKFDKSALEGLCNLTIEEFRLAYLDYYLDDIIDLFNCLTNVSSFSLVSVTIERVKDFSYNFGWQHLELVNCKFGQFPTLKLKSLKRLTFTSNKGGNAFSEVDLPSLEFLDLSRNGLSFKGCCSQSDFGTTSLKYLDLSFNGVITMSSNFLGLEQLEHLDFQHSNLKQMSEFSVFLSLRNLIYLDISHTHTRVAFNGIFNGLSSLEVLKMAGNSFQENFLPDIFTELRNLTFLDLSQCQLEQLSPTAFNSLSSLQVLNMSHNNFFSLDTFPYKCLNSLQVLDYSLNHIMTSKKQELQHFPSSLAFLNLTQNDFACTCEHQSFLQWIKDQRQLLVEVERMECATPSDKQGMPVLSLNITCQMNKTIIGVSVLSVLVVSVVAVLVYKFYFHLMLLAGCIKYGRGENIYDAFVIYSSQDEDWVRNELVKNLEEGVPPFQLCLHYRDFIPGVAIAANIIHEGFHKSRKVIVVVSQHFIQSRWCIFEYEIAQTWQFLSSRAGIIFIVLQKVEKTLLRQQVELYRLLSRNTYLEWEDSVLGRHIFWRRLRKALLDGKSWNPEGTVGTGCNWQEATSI

[20] = biological target: T1, Toll-like receptor 4 (Mus musculus) (UniProt Q9QUK6); test: Inhibition of LPS-induced TLR4 activation in mouse RAW264.7 cells assessed as decrease in ERK phosphorylation at 2 uM pretreated for 1 hr followed by LPS treatment for 30 mins by Western blot analysis relative to control; type: cell-based; conditions: time 90.0 min
T1 sequence (whole entry): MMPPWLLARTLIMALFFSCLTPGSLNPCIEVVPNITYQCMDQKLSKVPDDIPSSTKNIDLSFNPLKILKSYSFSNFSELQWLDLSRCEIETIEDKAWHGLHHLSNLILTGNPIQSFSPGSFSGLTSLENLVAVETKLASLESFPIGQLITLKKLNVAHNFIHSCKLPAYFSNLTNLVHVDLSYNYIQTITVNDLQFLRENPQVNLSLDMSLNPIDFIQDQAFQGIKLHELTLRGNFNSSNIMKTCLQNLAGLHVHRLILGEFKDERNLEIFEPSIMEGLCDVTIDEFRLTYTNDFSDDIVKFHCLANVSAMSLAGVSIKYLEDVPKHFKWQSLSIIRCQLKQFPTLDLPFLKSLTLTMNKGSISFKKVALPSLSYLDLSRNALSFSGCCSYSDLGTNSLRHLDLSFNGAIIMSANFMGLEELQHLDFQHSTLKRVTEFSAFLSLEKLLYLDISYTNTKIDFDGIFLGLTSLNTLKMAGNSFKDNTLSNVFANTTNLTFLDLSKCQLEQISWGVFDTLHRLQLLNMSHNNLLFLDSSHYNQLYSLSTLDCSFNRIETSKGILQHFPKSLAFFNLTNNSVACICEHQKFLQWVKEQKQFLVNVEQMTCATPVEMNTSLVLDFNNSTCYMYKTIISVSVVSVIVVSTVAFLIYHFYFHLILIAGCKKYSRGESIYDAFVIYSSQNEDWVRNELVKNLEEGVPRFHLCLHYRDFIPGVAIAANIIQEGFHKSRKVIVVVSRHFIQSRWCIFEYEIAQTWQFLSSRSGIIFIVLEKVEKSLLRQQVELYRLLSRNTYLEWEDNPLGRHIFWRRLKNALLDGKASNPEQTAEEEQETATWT

Acinetobacter baumannii = test: Antibacterial activity against carbapenem-resistant Acinetobacter baumannii 1915 incubated for 24 hrs by CLSI based broth microdilution method; type: functional, organism-based
Mus musculus [21] = test: Antiseptic activity in sepsis shock ICR mouse model infected with carbapenem-resistant Acinetobacter baumannii assessed as decrease in endotoxin level in serum at 1 mg/kg, ip pretreated with compound for 1 hr followed by bacterial infection measured after 16 hrs relative to control; type: functional; parameters: scale not given: the % may be the effect or the level left; conditions: time 17 hrs
Mus musculus [22] = test: Antiseptic activity in sepsis shock ICR mouse model infected with carbapenem-resistant Acinetobacter baumannii assessed as decrease in IL-6 level in serum at 1 mg/kg, ip pretreated with compound for 1 hr followed by bacterial infection measured after 16 hrs relative to control; type: functional; parameters: scale not given: the % may be the effect or the level left; conditions: time 17 hrs
Mus musculus [23] = test: Antiseptic activity in sepsis shock ICR mouse model infected with carbapenem-resistant Acinetobacter baumannii assessed as decrease in AST level in serum at 1 mg/kg, ip pretreated with compound for 1 hr followed by bacterial infection measured after 16 hrs relative to control; type: functional; parameters: scale not given: the % may be the effect or the level left; conditions: time 17 hrs
Mus musculus [24] = test: Antiseptic activity in sepsis shock ICR mouse model infected with carbapenem-resistant Acinetobacter baumannii assessed as reduction in bacterial count in kidney at 1 mg/kg, ip pretreated with compound for 1 hr followed by bacterial infection measured after 16 hrs relative to control; type: functional; parameters: scale not given: the % may be the effect or the level left; conditions: time 17 hrs
Mus musculus [25] = test: Antiseptic activity in sepsis shock ICR mouse model infected with carbapenem-resistant Acinetobacter baumannii assessed as reduction in serum IL-6 level at 1 mg/kg, ip pre-infected with bacteria followed by compound administration 3 hrs post-infection measured after 16 hrs relative to control; type: functional; parameters: scale not given: the % may be the effect or the level left

H-GVFRLKKWIKKVIKKWGK-NH2
MIC [1]: 8 µM | MIC (Escherichia coli [2]): 32 µM | MIC (Staphylococcus aureus [3]): 8 µM | MIC (Escherichia coli [4]): 16 µM | MIC (Escherichia coli [5]): 32 µM | Activity (Escherichia coli [6]): inactive | Activity (Escherichia coli [7]): inactive | fold change (FC) [8]: ~ 5 | fold change (FC) [9]: ~ 5 | Activity (Escherichia coli [10]): inactive | fractional inhibitory concentration index (FICI) (Staphylococcus aureus [11]): 0.313 | MIC (Pseudomonas aeruginosa [12]): 512 µM | MIC (Pseudomonas aeruginosa [13]): 128 µM | MIC (Pseudomonas aeruginosa [14]): 2 µM | viability at 16 h, up to 20 µM [15]: > 95%

H-GVFRLKKWLKKVKKWGK-NH2
MIC [1]: 8 µM | MIC (Escherichia coli [2]): 32 µM | MIC (Staphylococcus aureus [3]): 8 µM | MIC (Escherichia coli [4]): 16 µM | MIC (Escherichia coli [5]): 16 µM | fold change (FC) [8]: ~ 5 | fold change (FC) [9]: ~ 5 | Activity (Escherichia coli [10]): inactive | fractional inhibitory concentration index (FICI) (Staphylococcus aureus [11]): 0.313 | MIC (Pseudomonas aeruginosa [12]): 512 µM | MIC (Pseudomonas aeruginosa [13]): 256 µM | MIC (Pseudomonas aeruginosa [14]): 2 µM | viability at 16 h, up to 20 µM [15]: > 95% | Activity (Lipopolysaccharide (LPS) [16]): Dose-dependent-effect; Activity Similar To Ll-37 | Activity (Lipopolysaccharide (LPS) [17]): 80% | Activity (Lipopolysaccharide (LPS) [18]): 75% | inhibition [19]: 100% | inhibition [20]: 27% | Activity (Acinetobacter baumannii): Active | Activity (Mus musculus [21]): >56.1% | Activity (Mus musculus [22]): 86.3% | Activity (Mus musculus [23]): 31.8% | Activity (Mus musculus [24]): 99.6% | Activity (Mus musculus [25]): 14.8%
